Patent publication US20120034226A1, “DIAGNOSTIC METHOD OF SKIN INFLAMMATORY DISEASE” (RIKEN, priority 2009, published 2012)

Key:
[1] = test system: CD4-positive T cells derived from the mutant mouse; test: Cytokine-dependent cell proliferation activity (WST-8 assay); assay type: cell-based; settings: cytokine/PMA-stimulated, 48 hours culture, Jak inhibitor I 3-100 nM, Jak3 inhibitor I 125-500 μM
Experimental: Cytokine-dependent cell proliferation activity was measured as described below. Single cells of the thymus in suspension were cultured at a density of 5×10^5 cells/well, and stimulated with PMA (10 ng/ml) [IL-2 (25 ng/ml), IL-4 (25 ng/ml), IL-6 (100 ng/ml), IL-7 (25 ng/ml), IL-12 (1-100 ng/ml) or IFN-γ (100 ng/ml) (Peprotech and R&D) was added]. Used in some experiments was the pan-Jak inhibitor Jak inhibitor I (3-100 nM, pyridone 6; Calbiochem) or Jak3 inhibitor I (125-500 μM, WHI-P131; Calbiochem). The cells were cultured for 48 hours, and their proliferation was measured by an assay using WST-8 (Nacalai Tesque) and soluble tetrazolium/formazan.

[2] = test system: Jak1; settings: Kumamoto T. et al., Cancer Lett. 2009; cited from earlier work
[3] = test system: EGF receptor (EGFR); settings: Kumamoto T. et al., Cancer Lett. 2009; cited from earlier work
[4] = test system: pY-Jak1 and Ki67 in the ear skins of the mutant mice; test: Histoimmunological staining of differentiation marker molecules in ear skin after Jak inhibitor; assay type: in vivo, mouse; settings: mutant mice treated with Jak inhibitor for 2 weeks from Week 4 of age
Experimental: (§1) Jak inhibitor I (150 μM, pyridone 6; Calbiochem) in suspension in acetone/olive oil (4:1), 10 μl, was topically applied to the ventral and dorsal parts of the ear skin of each mutant mouse three times a week, starting at 4 weeks after birth.
For analysis by immunofluorescence, frozen ear tissue specimens were fixed and stained using an antibody against pY-Jak1 (Cell Signaling), an antibody against Ki67 (Abcam), and an antibody against K6, K14 or K10 (Covance). Next, samples were incubated with an FITC- or Cy3-conjugated goat anti-rabbit IgG secondary antibody (Zymed). The slides were further counter-stained with hematoxylin or DAPI (Vector Laboratories).
Since some differentiation marker molecules were abnormally expressed in the epidermal layer, how the expression of those differentiation marker molecules changed with inhibition of Jak1 activity with a Jak inhibitor in mutant mice was examined by histoimmunological staining (FIG. 5c). By inhibiting Jak1 activity, the expression of pY-Jak1 and the expression of Ki67 in the ear skins of the mutant mice could be reduced. In contrast, in the mice receiving the solvent alone, Jak1 and Ki67 were activated in excess. […] In the ear skins of mice treated with acetone-olive oil alone, all markers were expressed at higher levels than in the skins of non-treated mice.

[5] = test system: ear skins of mutant mice; test: Topical application of Jak inhibitor to ear skin of mutant mice, development of dermatitis; assay type: in vivo, mouse
Experimental: (§2) A mouse model of atopic dermatitis was generated according to a detailed protocol reported [Masuya et al., Hum Mol Genet. 16, 2366-2375 (2007); http://www.brc.riken.jp/lab/gsc/mouse/]. C57BL/6J mice and C3H/HeJ mice were purchased from CLEA Japan. C57BL/6-kit^W-sh/W-sh mice were obtained from the RIKEN BioResource Center. C57BL/6-RAG1^−/− mice were allowed to propagate spontaneously. Severity scores were determined using an improved version of a reported scale [Matsuda et al., Int Immunol. 9, 461-466 (1997)]. The mice were reared in an SPF (specific pathogen-free) environment and subjected to experiments in compliance with the guidelines with the approval of RIKEN's Animal Experiment Committee.
as §1
The above-described Example has shown that dermatitis in the mutant mice is caused by excess activation of Jak1 and resulting defect of the skin barrier. To verify this hypothesis, a Jak inhibitor was coated on the ear skins of mutant mice at 4 weeks after birth and their litter mates. To allow the inhibitor to deeply penetrate the epidermal layer, a combination of acetone and olive oil was used as the solvent for the inhibitor. In fact, this solvent itself was harmful to the formation of the epidermal barrier; the development of dermatitis in the mutant mice was promoted by administering this solvent.

[6] = test system: ear skins of mutant mice; test: Petrolatum coating of ear skin of mutant mice, development of dermatitis; assay type: in vivo, mouse; settings: Jak inhibitor added to petrolatum
Experimental: as §2
To determine whether the destruction of the skin permeability barrier causes the development of dermatitis in the mutant mice, their ear skins were coated with petrolatum alone three times a week for 4 to 16 weeks.

## COc1cc2ncnc(Nc3ccc(O)cc3)c2cc1OC [WHI-P131]
[1]
  inhibition of accentuated (excess) proliferation of lymphocytes: not
[1]; listed as Jak 3 inhibitor I
  inhibition of accentuated (excess) proliferation of lymphocytes: lack of proliferation inhibition

## O=c1c(O)c(-c2cc(O)c(O)c(O)c2)oc2cc(O)cc(O)c12 [myricetin, 3,3′,4′,5,5′,7-hexahydroxyflavone]
[2]
  phosphorylation of Jak1: inhibit
[3]
  self-phosphorylation of EGF receptor (EGFR): increase

## CC(C)(C)c1nc2c3cc[nH]c(=O)c3c3cc(F)ccc3c2[nH]1 [pyridone 6]
[4]
  expression of Ki67 in ear skin: reduced
  expression of pY-Jak1 in ear skin: reduced
[5]; 150 μM in acetone/olive oil, 10 μl topically on ear skin three times a week from 4 weeks after birth
  delay of development of dermatitis compared with solvent alone: 1 week
[5]; 150 μM in acetone/olive oil, topical on ear skin three times a week from 4 weeks after birth
  clinical symptoms compared with solvent alone: less severe clinical symptoms
[5]; Jak inhibitor applied to the skin, FIG. 5
  development of dermatitis (in words): suppressed
[5]; coating with the Jak inhibitor on ear skin
  progression of the illness after development of dermatitis: suppressed the progression of the illness
[1]
  inhibition of accentuated (excess) proliferation of lymphocytes: dose-dependently inhibited
[1]; listed as Jak inhibitor I
  inhibition of accentuated (excess) proliferation of lymphocytes: inhibited dose-dependently
[6]
  additive effect on suppression of development of the illness: no additive effect
